Data: patent publication US6946458B2, “N-thiolated beta-lactams: novel antibacterial agents for methicillin-resistant Staphylococcus aureus” (University of South Florida, priority 1999, dated 2005)
Read-outs that look alike come from different tables or passages of the source.

How the values were obtained:
[1] = tested on: Staph aureus 525; test: Kirby-Bauer agar disk diffusion; format: cell-based, Staphylococcus aureus
[2] = tested on: Staphylococcus epidermidis; test: Kirby-Bauer agar disk diffusion; format: cell-based; settings: 6-mm disks, 20 μg test compound
Procedure, shortened: (§1)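 Agar disk diffusion used 6-mm air-dried disks carrying 20 μg of compound. Values are mean diameters (mm) of the growth-inhibition zone at 24 h, from triplicate experiments. S. epidermidis and S. simulans were clinical isolates.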

[3] = tested on: Staphylococcus aureus (ATCC 25923); test: Kirby-Bauer agar disk diffusion; format: cell-based; settings: 6-mm disks, 20 μg test compound
Procedure, shortened: as §1

[4] = tested on: Micrococcus luteus; test: Kirby-Bauer agar disk diffusion; format: cell-based; settings: 6-mm disks, 20 μg test compound
Procedure, shortened: as §1

[5] = tested on: MRSA USF657; test: Kirby-Bauer agar disk diffusion; format: cell-based, Staphylococcus aureus; design: Kirby-Bauer Disc Diffusion Test Results: unit not given here; settings: for zone of inhibition at 20 µg/disc: Staphylococcus aureus, MRSA
Procedure, shortened: (§2)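 Read-out is the mean diameter (mm, n=3) of the zone without bacterial growth 24 h after applying a 6-mm disk carrying 20 μg of compound to an agar plate of β-lactamase-producing MRSA.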

[6] = tested on: MRSA USF652; test: Kirby-Bauer agar disk diffusion; format: cell-based, Staphylococcus aureus; design: Kirby-Bauer Disc Diffusion Test Results: unit not given here; settings: for zone of inhibition at 20 µg/disc: Staphylococcus aureus, MRSA
Procedure, shortened: as §2

[7] = tested on: MRSA USF655; test: Kirby-Bauer agar disk diffusion; format: cell-based, Staphylococcus aureus; design: Kirby-Bauer Disc Diffusion Test Results: unit not given here; settings: for zone of inhibition at 20 µg/disc: Staphylococcus aureus, MRSA
Procedure, shortened: as §2

[8] = tested on: MRSA USF658; test: Kirby-Bauer agar disk diffusion; format: cell-based, Staphylococcus aureus; design: Kirby-Bauer Disc Diffusion Test Results: unit not given here; settings: for zone of inhibition at 20 µg/disc: Staphylococcus aureus, MRSA
Procedure, shortened: as §2

[9] = tested on: MRSA USF659; test: Kirby-Bauer agar disk diffusion; format: cell-based, Staphylococcus aureus; design: Kirby-Bauer Disc Diffusion Test Results: unit not given here; settings: for zone of inhibition at 20 µg/disc: Staphylococcus aureus, MRSA
Procedure, shortened: as §2

[10] = tested on: MRSA USF654; test: Kirby-Bauer agar disk diffusion; format: cell-based, Staphylococcus aureus; design: Kirby-Bauer Disc Diffusion Test Results: unit not given here; settings: for zone of inhibition at 20 µg/disc: Staphylococcus aureus, MRSA
Procedure, shortened: as §2

[11] = tested on: MRSA USF656; test: Kirby-Bauer agar disk diffusion; format: cell-based, Staphylococcus aureus; design: Kirby-Bauer Disc Diffusion Test Results: unit not given here; settings: for zone of inhibition at 20 µg/disc: Staphylococcus aureus, MRSA
Procedure, shortened: as §2

[12] = tested on: S. saprophyticus (ATCC 3552); test: Kirby-Bauer agar disk diffusion; format: cell-based, Staphylococcus saprophyticus; settings: 6-mm disks, 20 μg test compound
Procedure, shortened: as §1

[13] = tested on: MRSA strains; test: MIC by agar dilution; format: cell-based, Staphylococcus aureus; settings: Staphylococcus aureus, MRSA, read-out: Minimum inhibitory concentration (MIC)
Excerpt: However, the N-alkylthio substituent is required, since reduction to the N—H analogue completely destroys the biological activity.

[14] = Table 1, 6-mm disks, 20 μg test compound, 24 h, triplicate, read-out: zone of growth inhibition, average diameter
[15] = Table 4, 20 μg disk loading, read-out: Zones of Inhibition
[16] = Table 6, 20 μg disk loading, read-out: The Zone of Inhibition
[17] = Table 3, 6-mm disks, 20 μg test compound, 24 hours
[18] = Table 5, beta-lactamase producing strain

## CC1(C)S[C@@H]2[C@H](NC(=O)Cc3ccccc3)C(=O)N2[C@H]1C(=O)O [PenG, penicillin G, reference compound]
[1]; Staphylococcus aureus, 525, Table 4, 20 μg disk loading, read-out: Zones of Inhibition
  zone of inhibition at 20 µg/disc: 33 mm
[1]; Table 5
  Kirby-Bauer Disc Diffusion Test Results: 33
[2]; Staphylococcus epidermidis, Table 1, 24 h, triplicate, read-out: zone of growth inhibition, average diameter
  zone of inhibition at 20 µg/disc: 50 mm
[2]; Table 3, 24 hours
  zone of growth inhibition, average diameter: 50 mm
[3]; Staphylococcus aureus, ATCC25923, Table 1, 24 h, triplicate, read-out: zone of growth inhibition, average diameter
  zone of inhibition at 20 µg/disc: 34 mm
[3]; Table 3, 24 hours
  zone of growth inhibition, average diameter: 34 mm
[4]; Micrococcus luteus, Table 1, 24 h, triplicate, read-out: zone of growth inhibition, average diameter
  zone of inhibition at 20 µg/disc: 40 mm
[4]; Table 3, 24 hours
  zone of growth inhibition, average diameter: 40 mm
[5]; [14]
  zone of inhibition at 20 µg/disc: 12 mm
[5]; [15]
  zone of inhibition at 20 µg/disc: 12 mm
[5]; [16]
  zone of inhibition at 20 µg/disc: 12 mm
[5]; [17]
  zone of growth inhibition, average diameter: 12 mm
[5]; [18]
  Kirby-Bauer Disc Diffusion Test Results: 12
[6]; [14]
  zone of inhibition at 20 µg/disc: 8 mm
[6]; [15]
  zone of inhibition at 20 µg/disc: 8 mm
[6]; [16]
  zone of inhibition at 20 µg/disc: 8 mm
[6]; [17]
  zone of growth inhibition, average diameter: 8 mm
[6]; [18]
  Kirby-Bauer Disc Diffusion Test Results: 8
[7]; [14]
  zone of inhibition at 20 µg/disc: 14 mm
[7]; [15]
  zone of inhibition at 20 µg/disc: 14 mm
[7]; [16]
  zone of inhibition at 20 µg/disc: 13 mm
[7]; [17]
  zone of growth inhibition, average diameter: 14 mm
[7]; Table 5
  Kirby-Bauer Disc Diffusion Test Results: 13
[8]; [14]
  zone of inhibition at 20 µg/disc: 19 mm
[8]; [15]
  zone of inhibition at 20 µg/disc: 19 mm
[8]; [16]
  zone of inhibition at 20 µg/disc: 18 mm
[8]; [17]
  zone of growth inhibition, average diameter: 19 mm
[8]; [18]
  Kirby-Bauer Disc Diffusion Test Results: 18
[9]; [14]
  zone of inhibition at 20 µg/disc: 15 mm
[9]; [15]
  zone of inhibition at 20 µg/disc: 15 mm
[9]; [16]
  zone of inhibition at 20 µg/disc: 16 mm
[9]; [17]
  zone of growth inhibition, average diameter: 15 mm
[9]; [18]
  Kirby-Bauer Disc Diffusion Test Results: 16
[10]; [14]
  zone of inhibition at 20 µg/disc: 10 mm
[10]; [15]
  zone of inhibition at 20 µg/disc: 9 mm
[10]; [16]
  zone of inhibition at 20 µg/disc: 9 mm
[10]; [17]
  zone of growth inhibition, average diameter: 10 mm
[10]; [18]
  Kirby-Bauer Disc Diffusion Test Results: 10
[11]; [14]
  zone of inhibition at 20 µg/disc: 12 mm
[11]; [15]
  zone of inhibition at 20 µg/disc: 12 mm
[11]; [16]
  zone of inhibition at 20 µg/disc: 10 mm
[11]; [17]
  zone of growth inhibition, average diameter: 12 mm
[11]; [18]
  Kirby-Bauer Disc Diffusion Test Results: 10
[12]; Staphylococcus saprophyticus, ATCC3552, Table 1, 24 h, triplicate, read-out: zone of growth inhibition, average diameter
  zone of inhibition at 20 µg/disc: 30 mm
[12]; Table 3, 24 hours
  zone of growth inhibition, average diameter: 30 mm
[13]
  MIC: > 64 µg/mL
